Read-outs that look alike come from different tables or passages of the source.
Legend:
PI3Kβ = biological target: T1, PI3Kβ (Homo sapiens, UniProt P42338); test: Enzyme binding assay (KINOMEscan, DiscoveRx); conditions: PIK3Cβ_h, read-out: Kd PIK3Cβ_h
T1 construct: purchased DiscoveRx Corporation, San Diego (contract service, KINOMEscan)
Summary of the method: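 KINOMEscan binding platform; read-out is the inhibitor binding constant Kd (nM).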

PI3Kδ = biological target: T2, PI3Kδ (Homo sapiens, UniProt O00329); test: Enzyme binding assay (KINOMEscan, DiscoveRx); conditions: PIK3Cδ_h
T2 construct: purchased DiscoveRx Corporation, San Diego (contract service, KINOMEscan)
T2 sequence (O00329 1-1044): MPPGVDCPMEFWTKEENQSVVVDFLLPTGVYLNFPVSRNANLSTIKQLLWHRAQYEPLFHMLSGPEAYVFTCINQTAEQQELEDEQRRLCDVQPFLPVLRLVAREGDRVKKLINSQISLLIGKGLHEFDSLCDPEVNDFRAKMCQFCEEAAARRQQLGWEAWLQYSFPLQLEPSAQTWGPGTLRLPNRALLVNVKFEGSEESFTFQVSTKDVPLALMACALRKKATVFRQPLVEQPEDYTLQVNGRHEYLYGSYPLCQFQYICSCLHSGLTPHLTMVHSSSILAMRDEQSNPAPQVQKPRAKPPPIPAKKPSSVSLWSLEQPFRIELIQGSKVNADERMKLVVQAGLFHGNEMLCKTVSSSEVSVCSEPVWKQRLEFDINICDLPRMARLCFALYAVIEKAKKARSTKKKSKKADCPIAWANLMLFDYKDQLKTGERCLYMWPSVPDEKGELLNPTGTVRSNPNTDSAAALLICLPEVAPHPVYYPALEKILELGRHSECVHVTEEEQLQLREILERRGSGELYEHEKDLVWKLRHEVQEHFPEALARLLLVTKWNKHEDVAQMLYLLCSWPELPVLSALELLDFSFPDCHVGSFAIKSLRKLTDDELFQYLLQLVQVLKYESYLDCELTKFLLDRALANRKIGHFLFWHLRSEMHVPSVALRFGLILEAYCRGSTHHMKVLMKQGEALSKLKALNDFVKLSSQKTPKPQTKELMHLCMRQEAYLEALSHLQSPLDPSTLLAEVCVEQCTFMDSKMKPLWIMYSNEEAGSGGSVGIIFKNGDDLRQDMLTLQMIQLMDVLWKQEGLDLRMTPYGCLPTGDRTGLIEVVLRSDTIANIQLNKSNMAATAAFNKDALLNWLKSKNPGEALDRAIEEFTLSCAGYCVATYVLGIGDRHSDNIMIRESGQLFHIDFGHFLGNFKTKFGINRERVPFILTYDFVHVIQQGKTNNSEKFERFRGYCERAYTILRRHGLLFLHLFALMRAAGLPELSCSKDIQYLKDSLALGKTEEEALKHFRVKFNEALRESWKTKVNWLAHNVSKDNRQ
Summary of the method: (§1)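 KINOMEscan readout; values are kinase binding affinities.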

kinase enzymes [1] = biological target: T3, kinase enzymes (Homo sapiens, UniProt P42336); test: Enzyme binding assay (KINOMEscan, DiscoveRx), further kinases of Table A; conditions: PIK3Cα_h
T3 construct: purchased DiscoveRx Corporation, San Diego (contract service, KINOMEscan)
T3 sequence (P42336 whole entry): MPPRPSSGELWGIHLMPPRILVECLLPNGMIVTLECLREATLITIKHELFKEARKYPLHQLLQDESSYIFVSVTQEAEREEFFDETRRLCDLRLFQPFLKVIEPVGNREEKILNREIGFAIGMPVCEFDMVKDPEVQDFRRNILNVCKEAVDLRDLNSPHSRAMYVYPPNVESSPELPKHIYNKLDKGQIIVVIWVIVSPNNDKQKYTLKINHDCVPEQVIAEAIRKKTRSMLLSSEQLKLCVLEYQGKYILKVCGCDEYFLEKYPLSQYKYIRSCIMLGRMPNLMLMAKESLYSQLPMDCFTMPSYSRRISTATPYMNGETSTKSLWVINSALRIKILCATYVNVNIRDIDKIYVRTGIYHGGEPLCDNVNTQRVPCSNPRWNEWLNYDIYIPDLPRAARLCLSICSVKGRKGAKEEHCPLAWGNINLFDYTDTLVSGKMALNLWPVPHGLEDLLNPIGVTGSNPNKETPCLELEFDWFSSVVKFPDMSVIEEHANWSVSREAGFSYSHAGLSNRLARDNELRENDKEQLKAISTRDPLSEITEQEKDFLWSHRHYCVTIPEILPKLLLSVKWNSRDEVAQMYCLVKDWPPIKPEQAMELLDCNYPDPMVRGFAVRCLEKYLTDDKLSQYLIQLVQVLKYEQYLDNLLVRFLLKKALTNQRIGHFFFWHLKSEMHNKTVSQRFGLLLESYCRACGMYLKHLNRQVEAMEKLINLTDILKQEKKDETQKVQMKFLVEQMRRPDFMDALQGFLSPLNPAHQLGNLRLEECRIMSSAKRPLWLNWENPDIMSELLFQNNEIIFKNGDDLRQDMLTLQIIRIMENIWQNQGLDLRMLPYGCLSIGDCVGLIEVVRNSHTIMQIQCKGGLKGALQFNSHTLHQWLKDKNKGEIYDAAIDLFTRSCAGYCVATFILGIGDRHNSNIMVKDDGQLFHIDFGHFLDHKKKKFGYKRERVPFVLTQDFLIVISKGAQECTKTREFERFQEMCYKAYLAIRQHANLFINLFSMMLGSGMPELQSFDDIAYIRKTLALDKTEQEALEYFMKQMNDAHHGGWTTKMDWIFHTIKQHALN
Summary of the method: as §1

kinase enzymes [2] = biological target: T4, kinase enzymes (Homo sapiens, UniProt P42345); test: as above; conditions: MTOR_h
T4 construct: purchased DiscoveRx Corporation, San Diego (contract service, KINOMEscan)
Summary of the method: as §1

kinase enzymes [3] = biological target: T5, kinase enzymes (Homo sapiens, UniProt P48736); test: as above; conditions: PIK3Cγ_h
T5 construct: purchased DiscoveRx Corporation, San Diego (contract service, KINOMEscan)
T5 sequence (P48736 whole entry): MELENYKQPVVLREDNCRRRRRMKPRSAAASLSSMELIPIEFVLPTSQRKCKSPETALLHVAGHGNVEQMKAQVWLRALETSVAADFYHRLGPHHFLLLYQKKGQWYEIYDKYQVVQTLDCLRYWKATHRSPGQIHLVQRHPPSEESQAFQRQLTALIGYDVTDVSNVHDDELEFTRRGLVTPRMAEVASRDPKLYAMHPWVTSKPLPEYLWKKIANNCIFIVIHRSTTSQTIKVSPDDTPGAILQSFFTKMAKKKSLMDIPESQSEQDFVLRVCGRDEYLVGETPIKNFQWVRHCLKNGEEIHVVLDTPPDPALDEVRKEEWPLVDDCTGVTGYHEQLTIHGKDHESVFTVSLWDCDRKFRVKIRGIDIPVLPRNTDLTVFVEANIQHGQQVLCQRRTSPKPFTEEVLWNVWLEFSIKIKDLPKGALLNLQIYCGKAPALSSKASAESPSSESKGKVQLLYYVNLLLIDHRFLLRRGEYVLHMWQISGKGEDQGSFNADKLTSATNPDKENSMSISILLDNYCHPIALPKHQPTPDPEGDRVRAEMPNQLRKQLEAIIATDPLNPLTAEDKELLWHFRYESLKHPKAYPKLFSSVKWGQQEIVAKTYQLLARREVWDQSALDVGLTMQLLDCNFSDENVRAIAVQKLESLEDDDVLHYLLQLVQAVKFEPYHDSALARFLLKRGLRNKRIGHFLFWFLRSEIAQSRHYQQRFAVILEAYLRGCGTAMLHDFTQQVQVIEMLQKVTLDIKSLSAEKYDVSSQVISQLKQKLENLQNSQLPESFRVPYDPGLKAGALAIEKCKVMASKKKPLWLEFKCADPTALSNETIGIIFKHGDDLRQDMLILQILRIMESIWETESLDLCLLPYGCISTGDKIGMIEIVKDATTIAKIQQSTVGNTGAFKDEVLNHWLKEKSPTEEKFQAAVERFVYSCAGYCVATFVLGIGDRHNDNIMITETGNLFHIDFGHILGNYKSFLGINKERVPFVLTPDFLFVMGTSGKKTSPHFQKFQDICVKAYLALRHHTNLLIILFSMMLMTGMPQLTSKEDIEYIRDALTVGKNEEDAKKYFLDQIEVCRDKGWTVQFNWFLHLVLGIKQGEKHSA
Summary of the method: as §1

[4] = tested on: Akt phosphorylated at Ser473 in PC-3 cells; test: Cellular assay: phosphorylation of Akt at Ser473 in PC-3 cells (MSD ELISA); assay type: cell-based; conditions: PC-3 cells, 60 min compound incubation, MSD ELISA, read-out: IC50 pAkt_S473
Summary of the method: (§2)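 After lysis of treated cells (60 min, 37° C, 0.3% DMSO), phospho-Akt levels were measured by MSD electrochemiluminescence ELISA. Potency was derived from concentration-response curves fitted over five concentrations.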

[5] = tested on: Akt phosphorylated at Thr308 in PC-3 cells; test: Cellular assay: phosphorylation of Akt at Thr308 in PC-3 cells (MSD ELISA); assay type: cell-based; conditions: PC-3 cells, 60 min compound incubation, MSD ELISA, read-out: IC50 pAkt_Thr308
Summary of the method: as §2

T1 sequence (P42338 whole entry): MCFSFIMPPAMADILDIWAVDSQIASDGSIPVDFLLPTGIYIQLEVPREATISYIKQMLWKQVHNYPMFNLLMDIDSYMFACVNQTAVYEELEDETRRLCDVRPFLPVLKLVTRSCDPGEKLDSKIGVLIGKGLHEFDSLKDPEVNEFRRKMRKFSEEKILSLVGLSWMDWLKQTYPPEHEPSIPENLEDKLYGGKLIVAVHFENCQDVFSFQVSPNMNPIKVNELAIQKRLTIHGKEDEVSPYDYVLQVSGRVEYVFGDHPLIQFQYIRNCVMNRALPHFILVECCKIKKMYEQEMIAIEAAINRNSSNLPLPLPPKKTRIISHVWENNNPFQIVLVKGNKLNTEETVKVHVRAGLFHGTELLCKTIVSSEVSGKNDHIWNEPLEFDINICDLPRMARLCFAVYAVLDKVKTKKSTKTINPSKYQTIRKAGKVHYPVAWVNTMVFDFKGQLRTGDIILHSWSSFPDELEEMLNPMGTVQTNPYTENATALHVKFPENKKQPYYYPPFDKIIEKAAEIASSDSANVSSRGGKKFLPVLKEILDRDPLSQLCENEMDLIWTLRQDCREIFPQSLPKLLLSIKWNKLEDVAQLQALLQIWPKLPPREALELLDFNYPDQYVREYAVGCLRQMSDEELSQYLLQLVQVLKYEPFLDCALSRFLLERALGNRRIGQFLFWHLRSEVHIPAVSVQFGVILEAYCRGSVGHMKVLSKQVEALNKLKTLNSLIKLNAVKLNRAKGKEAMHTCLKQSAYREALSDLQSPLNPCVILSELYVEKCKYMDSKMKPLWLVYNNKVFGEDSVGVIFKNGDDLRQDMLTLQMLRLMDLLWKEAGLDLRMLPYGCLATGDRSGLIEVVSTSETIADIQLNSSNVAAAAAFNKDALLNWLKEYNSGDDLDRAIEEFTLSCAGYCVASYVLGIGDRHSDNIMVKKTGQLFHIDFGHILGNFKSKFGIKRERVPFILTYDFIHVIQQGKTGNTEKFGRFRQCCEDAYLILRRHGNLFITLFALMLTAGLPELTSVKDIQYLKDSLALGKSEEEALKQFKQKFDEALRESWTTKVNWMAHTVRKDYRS

Row | Compound | Kd (PI3Kβ) [µM] | Kd (PI3Kδ) [µM] | Kd (kinase enzymes [1]) [µM] | Kd (kinase enzymes [2]) [µM] | Kd (kinase enzymes [3]) [µM] | IC50 ([4]; Homo sapiens, PC-3, 1 h) [µM] | IC50 ([5]; Homo sapiens, PC-3, 1 h) [µM] | IC50 [4] [µM] | IC50 [5] [µM]
1 | CC(Nc1cc(F)cc(F)c1)c1cc(C(=O)O)cc2ncc(N3CCOCC3)nc12 (stereo not drawn) [Compound 236] | 0.002 | 0.158 | 0.112 | 1.32 | 0.813 | > 0.513 | > 0.513 |  | 
2 | CC(Oc1cc(F)cc(F)c1)c1cc(C(=O)N(C)C)cc2ncc(N3CCOCC3)nc12 (stereo not drawn) [Compound 53] | 0.003 | 0.692 | 2.95 | > 30.2 | 21.4 | 0.214 | 0.148 |  | 
3 | CC(Nc1ccc(F)c(F)c1)c1cc(C(=O)N2CCC[C@H](O)C2)cc2ncc(N3CCOCC3)nc12 (single isomer, unassigned) [Compound 302b] | 0.003 | 0.186 | 1.1 | > 30.2 | 11.7 |  |  | 0.054 | 0.039
4 | CC(Nc1cc(F)cc(F)c1)c1cc(CNCC(F)(F)F)cc2ncc(N3CCOCC3)nc12 (single isomer, unassigned) [Compound 163] | 0.832 | 16.2 | > 30.2 | > 30.2 | > 30.2 |  |  | > 0.513 | > 0.513
5 | CC(Nc1cc(F)cc(F)c1)c1cc(COCCO)cc2ncc(N3CCOCC3)nc12 (single isomer, unassigned) [Compound 178] | 1.1 | 16.6 | > 30.2 | > 30.2 | > 30.2 |  |  | > 0.513 | > 0.513
6 | CC(Nc1ccc(F)c(F)c1)c1cc(C(=O)N2CCN3CCC[C@@H]3C2)cc2ncc(N3CCOCC3)nc12 (single isomer, unassigned) [Compound 347b] | 0.002 | 0.355 | 3.89 | > 30.2 | 25.7 |  |  | 0.085 | 0.06
7 | CC(Nc1cc(F)cc(F)c1)c1cc(C(=O)NS(=O)(=O)C2CC2)cc2ncc(N3CCOCC3)nc12 (stereo not drawn) [Compound 218] | 0.005 | 1.17 | 0.537 | 3.31 | 3.09 | > 0.513 | > 0.513 |  | 
8 | CC(Oc1cc(F)cc(F)c1)c1cc(C(=O)N2CCC2)cc2ncc(N3CCO[C@H](CO)C3)nc12 (mixture of isomers) [Compound 81] | 0.03 | 2.63 | 19.1 | > 30.2 | 29.5 | ~0.49 | 0.219 |  | 
9 | CNCCNC(=O)c1cc([C@@H](C)Oc2cccc(F)c2)c2nc(N3CCOCC3)cnc2c1 [Compound 122] | 0.0003 | 0.151 | 2.88 | 25.7 | 5.62 |  |  | 0.04 | 0.026
10 | CC(Nc1cc(F)cc(F)c1)c1cc(C(=O)N2CC3(C2)CS(=O)(=O)C3)cc2ncc(N3CCOCC3)nc12 (stereo not drawn) [Compound 148] | 0.001 | 0.316 | 1.07 | > 30.2 | 8.13 | 0.068 | 0.03 |  | 
11 | CNCCNC(=O)c1cc(C(C)Oc2ccc(F)c(F)c2)c2nc(N3CCOCC3)cnc2c1 (single isomer, unassigned) [Compound 344b] | 0.166 | 3.8 | 8.13 | > 30.2 | 14.1 |  |  | > 0.513 | ~0.513
12 | CC(Oc1cccc(F)c1)c1cc(C(=O)N(C)C)cc2ncc(N3CCOCC3)nc12 (single isomer, unassigned) [Compound 339a] | 0.112 | 2.09 | 4.57 | > 30.2 | 10.7 |  |  | > 0.513 | 0.407
